# Literature values in patent US9072700B2, “Methods of using derivatives of (−)-venlafaxine” (Sunovion Pharmaceuticals Inc., priority 1998, dated 2015).
# How the values were obtained:
# [1] = Klamerus et al. 1992
# norepinephrine uptake = details: in vitro; Muth et al. 1991
# dopamine uptake = details: in vitro; Muth et al. 1991
# serotonin uptake = details: Howell et al. 1994
# [2] = test system: norepinephrine synaptosomal uptake; details: Howell et al. 1994
structure (smiles),measurement,setting,value
"CN(C)CC(c1ccc(O)cc1)C1(O)CCCCC1 (racemic) [O-desmethylvenlafaxine, (±)-1-[2-(dimethylamino)-1-(4-phenol)ethyl]cyclohexanol]",half-life (t½),[1],about 10 hours
same,half-life relative to that of venlafaxine,[1]; ratio to venlafaxine half-life,approximately 2.5 times
same,inhibition of norepinephrine uptake compared with racemic venlafaxine,norepinephrine uptake,more potent inhibitor
same,inhibition of dopamine uptake compared with racemic venlafaxine,dopamine uptake,more potent inhibitor
"COc1ccc(C(CN(C)C)C2(O)CCCCC2)cc1 (single isomer, unassigned; (+)) [(+) enantiomer]","selectivity in inhibiting serotonin uptake, enantiomer comparison",serotonin uptake,more selective
COc1ccc([C@H](CN(C)C)C2(O)CCCCC2)cc1 [(−) enantiomer],"inhibition of norepinephrine synaptosomal uptake, enantiomer comparison",[2],more potent inhibitor
